The results in this text go back to article PMC9499525, “Tissue-restricted inhibition of mTOR using chemical genetics” (Proceedings of the National Academy of Sciences of the …, 2022).

As usually defined, the IC50 is the concentration at which inhibition is half-maximal. Usually Papp stands for the rate of passage across a membrane or cell layer, normalised by area and donor concentration. By Papp A→B is commonly meant the apparent permeability from the apical to the basolateral side of a cell layer. A high value points to fast passage. What is called Papp B→A is the apparent permeability from the basolateral to the apical side of a cell layer.

In data set [1] the test system is mTOR signaling in Flp-In T-REx 293 cells. The experiment in a line: mTOR signaling by Western blot in parental (wild-type) Flp-In 293 cells. In kind it is cell-based, human. Conditions: for IC50: Homo sapiens, 24 h treatment, wild-type 293 cells. As to the method:
(§1) All cell lines were maintained in DMEM (Gibco) supplemented with 10% heat-inactivated FBS (Axenia Biologix) at 37 °C in 5% CO2. Flp-In T-REx 293 cells were obtained from Thermo Fisher supplemented with 15 µg/mL blasticin and 100 µg/mL Zeocin. Flp-In T-REx 293 FKBP12 V55G cells were supplemented with 15 µg/mL blasticin and 150 µg/mL hygromycin B. FKBP12 V55G expression was induced with 1 µg/mL doxycycline 24 h prior to drug treatments. MCF7 cells were obtained from ATCC (American Type Culture Collection), and MCF7 mTOR F2108L cells were described previously ([30]). When indicated, cells were treated with drugs at 60–80% confluency at a final DMSO concentration of 0.1%. At the end of the treatment period, cells were placed on ice and washed once with PBS. Cells were scraped with a spatula and lysed in radioimmunoprecipitation assay (RIPA) buffer supplemented with protease and phosphatase inhibitors (cOmplete and phosSTOP, Roche) on ice for 5 min. Lysates were clarified by high-speed centrifugation. Lysate concentration was determined by Bradford assay (Thermo Fisher) and adjusted to 2 mg/mL with additional RIPA buffer. Samples were mixed with 5x SDS loading dye and heated at 95 °C for 5 min.
SDS-PAGE was run with Novex 4–12% Bis-Tris gel (Invitrogen) in MOPS running buffer at 200V for 40 min. Samples were loaded at 20 µg lysate per lane. […] Following three 5 min. washes with TBST, membranes were imaged on a Li-COR Odyssey fluorescence imager. […] Blot quantification was performed in Fiji, and data were graphed and fit in Prism 9 (GraphPad). […] For detection of phosphorylated and total protein, primary antibodies for phospho-Akt/Akt, phospho-S6K/S6K, or phospho-S6/S6 were combined and detected using a mixture of species-specific secondary antibodies with orthogonal fluorescence to allow simultaneous detection of phosphorylated and total protein from a single membrane, or membrane was stripped (Cell Signaling Technology) after detection of phosphorylated protein and then reblocked and reprobed with primary antibody for total protein.
(In western blotting, separated proteins are transferred to a membrane and probed.)

The test system of data set [2] is MCF7 cells (with/without FKBP12 V55G-HA; mTOR F2108L). The experiment in a line: Cell growth by CellTiter-Glo in MCF7 cells. In kind it is cell-based, human. The note with it: 72 h treatment. How it is done: as §1, with “Cells were scraped with a spatula and lysed in radioimmunoprecipitation assay (RIPA) buffer supplemented with protease and phosphatase inhibitors (cOmplete and phosSTOP, Roche) on ice for 5 min. Lysates were clarified by high-speed centrifugation.” left out, “Samples were mixed with 5x SDS loading dye and heated at 95 °C for 5 min.” left out
Cells were seeded into 96-well tissue-culture treated plates (Greiner) and were allowed to incubate for 24 h. […] Cell viability was assessed by CellTiter-Glo (Promega). […] Luminescence was measured on a Tecan Spark 20M. […]
Human FKBP12 coding sequence was cloned a pET-47b bacterial expression vector using Gibson assembly and a C-terminal HA-tag was added by QuickChange PCR. FKBP12 proteins were expressed as 8xHis fusions in E. coli BL21 (DE3) cells. […]
A general note: Cellular ATP, detected with luciferase, serves as a proxy for viable cell number.

The nature of data set [3]: PAMPA membrane permeability. The data set is classed as in vitro ADME. The note with it: 100 µM in PBS, LC-MS. How it is done:
PAMPA and Caco-2 membrane permeability assays
PAMPA was performed by Quintara Discovery as described previously (2). Compounds were
analyzed at 100 µM in PBS and measured using liquid chromatography-mass spectrometry (LC-

A short description of data set [4]: Bidirectional Caco-2 cell permeability. The data set is classed as in vitro ADME. The note with it: human, LC-MS. As to the method:
PAMPA and Caco-2 membrane permeability assays […]
MS) after 5 hours. Bidirectional Caco-2 cell permeability assay was performed by Quintara
Discovery. Compounds were analyzed at 10 µM and measured by LC-MS after 1 hour.
Background: Caco-2 monolayers are a common model of the intestinal barrier.

Like-named read-outs stand apart in the source and are kept apart here.

Regarding `CCO/N=C1/C[C@@H]([C@H](C)C[C@@H]2CC[C@@H](O)[C@H](OC)C2)OC(=O)[C@@H]2CCCCN2C(=O)C(=O)[C@]2(O)O[C@@H](CC[C@H]2C)C[C@H](OC)/C(C)=C/C=C/C=C/[C@@H](C)C[C@@H](C)C(=O)[C@H](OC)[C@H](O)/C(C)=C/[C@H]1C` [Rapa*-3Z], in data set [1] (10 nM, time course), the “mTOR signaling in wild-type 293 cells” value is recorded as “unaffected”. For the same compound, in data set [1] (read-out: IC50 phospho-S6), the IC50 was 121 nM. Besides, in data set [1] (read-out: IC50 phospho-S6K), the IC50 turned out to be 76 nM. The “Cell growth inhibition, MCF7 cells with and without FKBP12 V55G” value in data set [2] (CellTiter-Glo) was “activity was restricted to the mutant FKBP12-expressing cells”. Moreover, the “Cell growth, MCF7 mTOR F2108L cells” value in data set [2] (rapamycin resistance mutation) was “had no effect on the growth of these cells”. For the same compound, the Papp at 5 h, 100 µM in data set [3] worked out at 0.053 ×10⁻⁶ cm/s. In data set [4], this compound yielded a Papp A→B at 1 h, 10 µM of under 0.5 ×10⁻⁶ cm/s and a Papp B→A at 1 h, 10 µM of 1 ×10⁻⁶ cm/s. For the same compound, the “Stability under experimental conditions (fly food, room temperature)” value (15 days, 100 µM) is listed as “at least 15 d”. In addition, the “Decomposition to rapamycin after prolonged storage” value (storage under experimental conditions, wild-type larvae readout) was “does not decompose to rapamycin”.
